# Where a SMILES comes first, the peptide text is derived from it. Bridges are numbered along the chain shown (N, C = ends). [ ]: non-standard residue; d: D form. The star is where a group is joined. X1 = NC[C@@H](CC(=O)*)c1cccc(Cl)c1; Dab = NCC[C@H](N)C(=O)O; Dap = NC[C@H](N)C(=O)O
# Tested on: A. baumannii ATCC 17978 (SEN) and A. baumannii ATCC BAA-1605 (MDR)
# Assay: Adaptive laboratory evolution (ALE), relative MIC of evolved lines
# Type: cell-based, Acinetobacter baumannii
# Summary of the method: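 Ten parallel populations per antibiotic–ancestor pair were evolved in MHB at 37 °C, starting near 50% growth-inhibiting drug. Every 72 h they were passaged into 0.5–2.5× increasing concentrations, keeping the highest-drug well with OD600 > 0.2.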
# [1] = AB-MDR (Acinetobacter baumannii ATCC BAA 1605), evolved line 2
# [2] = AB-SEN (Acinetobacter baumannii ATCC 17978), evolved line 1
# [3] = AB-SEN (Acinetobacter baumannii ATCC 17978), evolved line 3
# [4] = AB-SEN (Acinetobacter baumannii ATCC 17978), evolved line 5
# [5] = AB-SEN (Acinetobacter baumannii ATCC 17978), evolved line 8
# [6] = AB-SEN (Acinetobacter baumannii ATCC 17978), evolved line 9
structure (smiles),measurement,setting,value
CC(C)C[C@@H]1NC(=O)[C@@H](Cc2ccccc2)NC(=O)[C@H](CCN)NC(=O)[C@@H](NC(=O)[C@H](CN)NC(=O)[C@@H](NC(=O)C[C@H](CN)c2cccc(Cl)c2)[C@@H](C)O)CCNC(=O)[C@H]([C@@H](C)O)NC(=O)[C@H](CCN)NC(=O)[C@H](CCN)NC1=O [SPR206] (X1-T[Dap][Dab][Dab][dF]L[Dab][Dab]T; lactam 3-C (inferred); N-terminus assumed),Relative MIC,"AB-MDR (ATCC BAA 1605), evolved line 7, evolved vs ancestor",8192
same,Relative MIC,"AB-MDR (ATCC BAA 1605), evolved line 8, evolved vs ancestor",4096
same,Relative MIC,"AB-MDR (ATCC BAA 1605), evolved line 9, evolved vs ancestor",8192
same,Relative MIC,"AB-MDR (ATCC BAA 1605), evolved line 10, evolved vs ancestor",1024
same,Relative MIC,"AB-MDR (Acinetobacter baumannii ATCC BAA 1605), evolved line 1",2048
same,Relative MIC,[1],8192
same,Relative MIC (log10),[1],3.913 log10
same,Relative MIC (log10),"AB-MDR (Acinetobacter baumannii ATCC BAA 1605), evolved line 5",3.913 log10
same,Relative MIC (log10),"AB-MDR (Acinetobacter baumannii ATCC BAA 1605), evolved line 6",3.913 log10
same,Relative MIC (log10),"AB-MDR (Acinetobacter baumannii ATCC BAA 1605), evolved line 7",3.913 log10
same,Relative MIC (log10),"AB-MDR (Acinetobacter baumannii ATCC BAA 1605), evolved line 9",3.913 log10
same,MIC of evolved line,"AB-MDR ATCC BAA 1605, evolved line 1",256 µg/mL
same,MIC of evolved line,"AB-MDR ATCC BAA 1605, evolved line 2",1020 µg/mL
same,MIC of evolved line,"AB-MDR ATCC BAA 1605, evolved line 3",64 µg/mL
same,MIC of evolved line,"AB-MDR ATCC BAA 1605, evolved line 4",256 µg/mL
same,MIC of evolved line,"AB-MDR ATCC BAA 1605, evolved line 5",1020 µg/mL
same,MIC of evolved line,"AB-MDR ATCC BAA 1605, evolved line 6",1020 µg/mL
same,MIC of evolved line,"AB-MDR ATCC BAA 1605, evolved line 7",1020 µg/mL
same,MIC of evolved line,"AB-MDR ATCC BAA 1605, evolved line 8",512 µg/mL
same,MIC of evolved line,"AB-MDR ATCC BAA 1605, evolved line 9",1020 µg/mL
same,MIC of evolved line,"AB-MDR ATCC BAA 1605, evolved line 10",128 µg/mL
same,MIC of evolved line,"AB-SEN (A. baumannii ATCC 17978), evolved line 1 of the given antibiotic",256 µg/mL
same,Relative MIC,"AB-SEN (A. baumannii ATCC 17978), evolved line 1 vs ancestor",2048
same,MIC of evolved line,"AB-SEN (A. baumannii ATCC 17978), evolved line 2 of the given antibiotic",1020 µg/mL
same,Relative MIC,"AB-SEN (A. baumannii ATCC 17978), evolved line 2 vs ancestor",8192
same,MIC of evolved line,"AB-SEN (A. baumannii ATCC 17978), evolved line 3 of the given antibiotic",64 µg/mL
same,Relative MIC,"AB-SEN (A. baumannii ATCC 17978), evolved line 3 vs ancestor",512
same,MIC of evolved line,"AB-SEN (A. baumannii ATCC 17978), evolved line 4 of the given antibiotic",256 µg/mL
same,Relative MIC,"AB-SEN (A. baumannii ATCC 17978), evolved line 4 vs ancestor",2048
same,MIC of evolved line,"AB-SEN (A. baumannii ATCC 17978), evolved line 5 of the given antibiotic",1020 µg/mL
same,Relative MIC,"AB-SEN (A. baumannii ATCC 17978), evolved line 5 vs ancestor",8192
same,MIC of evolved line,"AB-SEN (A. baumannii ATCC 17978), evolved line 6 of the given antibiotic",1020 µg/mL
same,Relative MIC,"AB-SEN (A. baumannii ATCC 17978), evolved line 6 vs ancestor",8192
same,MIC of evolved line,"AB-SEN (A. baumannii ATCC 17978), evolved line 7 of the given antibiotic",1020 µg/mL
same,Relative MIC,"AB-SEN (A. baumannii ATCC 17978), evolved line 7 vs ancestor",8192
same,MIC of evolved line,"AB-SEN (A. baumannii ATCC 17978), evolved line 8 of the given antibiotic",512 µg/mL
same,Relative MIC,"AB-SEN (A. baumannii ATCC 17978), evolved line 8 vs ancestor",4096
same,MIC of evolved line,"AB-SEN (A. baumannii ATCC 17978), evolved line 9 of the given antibiotic",1020 µg/mL
same,Relative MIC,"AB-SEN (A. baumannii ATCC 17978), evolved line 9 vs ancestor",8192
same,MIC of evolved line,"AB-SEN (ATCC 17978), evolved line 10",128 µg/mL
same,Relative MIC,"AB-SEN (ATCC 17978), evolved line 10, evolved vs ancestor",1024
same,Relative MIC,[2],2048
same,Relative MIC (log10),[2],3.311 log10
same,Relative MIC,"AB-SEN (Acinetobacter baumannii ATCC 17978), evolved line 2",8192
same,Relative MIC,[3],512
same,Relative MIC (log10),[3],2.709 log10
same,Relative MIC,"AB-SEN (Acinetobacter baumannii ATCC 17978), evolved line 4",2048
same,Relative MIC,[4],8192
same,Relative MIC (log10),[4],3.913 log10
same,Relative MIC,"AB-SEN (Acinetobacter baumannii ATCC 17978), evolved line 6",8192
same,Relative MIC,[5],4096
same,Relative MIC (log10),[5],3.612 log10
same,Relative MIC,[6],8192
same,Relative MIC (log10),[6],3.913 log10
same,Relative MIC,"AB-SEN (Acinetobacter baumannii ATCC 17978), evolved line 10",1024
same,Relative MIC,"AB-SEN, Acinetobacter baumannii ATCC 17978, evolved line 7",8192
same,Relative MIC,"ALE, A. baumannii ATCC 17978 (AB-SEN), evolved line 1",2048
same,Relative MIC,"ALE, A. baumannii ATCC 17978 (AB-SEN), evolved line 2",8192
same,Relative MIC,"ALE, A. baumannii ATCC 17978 (AB-SEN), evolved line 3",512
same,Relative MIC,"ALE, A. baumannii ATCC 17978 (AB-SEN), evolved line 4",2048
same,Relative MIC,"ALE, A. baumannii ATCC 17978 (AB-SEN), evolved line 5",8192
same,Relative MIC,"ALE, A. baumannii ATCC 17978 (AB-SEN), evolved line 6",8192
same,Relative MIC,"ALE, A. baumannii ATCC 17978 (AB-SEN), evolved line 7",8192
same,Relative MIC,"ALE, A. baumannii ATCC 17978 (AB-SEN), evolved line 8",4096
same,Relative MIC,"ALE, A. baumannii ATCC 17978 (AB-SEN), evolved line 9",8192
same,Relative MIC,"ALE, A. baumannii ATCC 17978 (AB-SEN), evolved line 10",1024
same,Relative MIC,"ALE, A. baumannii ATCC BAA 1605 (AB-MDR), evolved line 1",2048
same,Relative MIC,"ALE, A. baumannii ATCC BAA 1605 (AB-MDR), evolved line 2",8192
same,Relative MIC,"ALE, A. baumannii ATCC BAA 1605 (AB-MDR), evolved line 3",512
same,Relative MIC,"ALE, A. baumannii ATCC BAA 1605 (AB-MDR), evolved line 4",2048
same,Relative MIC,"ALE, A. baumannii ATCC BAA 1605 (AB-MDR), evolved line 5",8192
same,Relative MIC,"ALE, A. baumannii ATCC BAA 1605 (AB-MDR), evolved line 6",8192
same,Relative MIC,"ALE, A. baumannii ATCC BAA 1605 (AB-MDR), evolved line 7",8192
same,Relative MIC,"ALE, A. baumannii ATCC BAA 1605 (AB-MDR), evolved line 8",4096
same,Relative MIC,"ALE, A. baumannii ATCC BAA 1605 (AB-MDR), evolved line 9",8192
same,Relative MIC,"ALE, A. baumannii ATCC BAA 1605 (AB-MDR), evolved line 10",1024
same,Relative MIC,"Acinetobacter baumannii ATCC 17978 (AB-SEN), evolved line 1",2048
same,Relative MIC,"Acinetobacter baumannii ATCC 17978 (AB-SEN), evolved line 2",8192
same,Relative MIC,"Acinetobacter baumannii ATCC 17978 (AB-SEN), evolved line 3",512
same,Relative MIC,"Acinetobacter baumannii ATCC 17978 (AB-SEN), evolved line 4",2048
same,Relative MIC,"Acinetobacter baumannii ATCC 17978 (AB-SEN), evolved line 5",8192
same,Relative MIC,"Acinetobacter baumannii ATCC 17978 (AB-SEN), evolved line 6",8192
same,Relative MIC,"Acinetobacter baumannii ATCC 17978 (AB-SEN), evolved line 7",8192
same,Relative MIC,"Acinetobacter baumannii ATCC 17978 (AB-SEN), evolved line 8",4096
same,Relative MIC,"Acinetobacter baumannii ATCC 17978 (AB-SEN), evolved line 9",8192
same,Relative MIC,"Acinetobacter baumannii ATCC 17978 (AB-SEN), evolved line 10",1024
same,Relative MIC,"Acinetobacter baumannii ATCC BAA 1605 (AB-MDR), evolved line 2",8192
same,Relative MIC,"Acinetobacter baumannii ATCC BAA 1605 (AB-MDR), evolved line 4",2048
same,Relative MIC,"Acinetobacter baumannii ATCC BAA 1605 (AB-MDR), evolved line 5",8192
same,Relative MIC,"Acinetobacter baumannii ATCC BAA 1605 (AB-MDR), evolved line 6",8192
same,Relative MIC,"Acinetobacter baumannii ATCC BAA 1605 (AB-MDR), evolved line 7",8192
same,Relative MIC,"Acinetobacter baumannii ATCC BAA 1605 (AB-MDR), evolved line 8",4096
same,Relative MIC,"Acinetobacter baumannii ATCC BAA 1605 (AB-MDR), evolved line 9",8192
same,Relative MIC,"Acinetobacter baumannii ATCC BAA 1605 (AB-MDR), evolved line 10",1024
same,Relative MIC,"Acinetobacter baumannii ATCC BAA 1605 (AB-MDR), evolved line 1",2048
same,Relative MIC,"Acinetobacter baumannii ATCC BAA 1605 (AB-MDR), evolved line 3",512

# From article PMC11845477, “Exploring the principles behind antibiotics with limited resistance” (Nature Communications, 2025)
